Among the data in ChEMBL document CHEMBL5634074, “Azaindole derivatives as potential kinase inhibitors and their SARs elucidation” (Eur J Med Chem, 2023) are IC50, efflux ratio and EC50 values, retold here.

Each structure is given as a SMILES string.

For data set [1], the target named is Voltage-gated inwardly rectifying potassium channel KCNH2 (Homo sapiens, UniProt Q12809). Description: Inhibition of hERG (unknown origin). Type of data set: toxicity. (Block of hERG is tested as a sign of cardiac risk.)
Voltage-gated inwardly rectifying potassium channel KCNH2, sequence (Q12809 whole entry): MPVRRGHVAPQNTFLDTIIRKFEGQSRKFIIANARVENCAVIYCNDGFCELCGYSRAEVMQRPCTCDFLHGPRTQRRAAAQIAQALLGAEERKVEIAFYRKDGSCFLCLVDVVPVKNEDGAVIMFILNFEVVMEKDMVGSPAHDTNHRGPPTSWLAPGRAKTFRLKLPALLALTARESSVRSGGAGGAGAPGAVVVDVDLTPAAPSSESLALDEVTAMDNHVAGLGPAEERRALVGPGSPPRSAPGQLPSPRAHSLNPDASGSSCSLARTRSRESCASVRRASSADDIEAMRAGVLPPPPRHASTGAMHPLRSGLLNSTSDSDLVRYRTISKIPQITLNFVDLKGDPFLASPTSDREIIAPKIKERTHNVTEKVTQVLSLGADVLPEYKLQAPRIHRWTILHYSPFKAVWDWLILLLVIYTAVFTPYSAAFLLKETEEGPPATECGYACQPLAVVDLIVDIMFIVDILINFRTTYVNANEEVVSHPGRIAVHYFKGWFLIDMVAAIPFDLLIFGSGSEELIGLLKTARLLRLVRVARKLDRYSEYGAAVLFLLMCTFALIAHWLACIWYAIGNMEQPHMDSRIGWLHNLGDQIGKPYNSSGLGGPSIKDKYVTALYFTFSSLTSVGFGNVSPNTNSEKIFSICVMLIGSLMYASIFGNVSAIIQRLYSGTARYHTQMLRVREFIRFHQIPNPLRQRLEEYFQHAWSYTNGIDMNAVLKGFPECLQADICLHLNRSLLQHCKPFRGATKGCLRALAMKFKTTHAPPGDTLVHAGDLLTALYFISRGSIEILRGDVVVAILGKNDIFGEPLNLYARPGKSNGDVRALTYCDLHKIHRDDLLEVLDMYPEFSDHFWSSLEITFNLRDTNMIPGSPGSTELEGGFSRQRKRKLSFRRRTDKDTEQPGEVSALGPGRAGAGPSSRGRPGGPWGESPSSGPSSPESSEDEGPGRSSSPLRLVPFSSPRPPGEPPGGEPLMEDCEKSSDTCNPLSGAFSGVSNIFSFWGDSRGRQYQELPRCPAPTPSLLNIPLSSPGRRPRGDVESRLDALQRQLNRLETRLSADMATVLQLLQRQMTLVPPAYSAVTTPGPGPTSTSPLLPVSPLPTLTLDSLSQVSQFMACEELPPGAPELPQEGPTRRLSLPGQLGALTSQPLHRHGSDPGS
Another data set has as its system KG-1. The data set can be described thus: cells. As to conditions: Homo sapiens, KG-1, 72 h.
Data set [2] deals with High affinity nerve growth factor receptor (Homo sapiens, UniProt P04629). Description: Inhibition of TRKA (unknown origin) by Ambit kinase assay.
Data set [3] is described as follows: Efflux ratio of apparent permeability across basolateral to apical side over apical to basolateral side in dog MDCK-MDR1 cells at 5 uM incubated for 90 mins by LC-MS/MS analysis. Type of data set: ADME, cell-based, Canis lupus familiaris.
The test system of the next data set is Dengue virus. Description: Antiviral activity against DENV infected in human Huh-7 cells assessed as reduction in viral growth incubated for 72 hrs by flow cytometry. Particulars: Huh-7, 72 h. Type of data set: functional, organism-based.
Data set [4] has as its target Proto-oncogene tyrosine-protein kinase receptor Ret (Homo sapiens, UniProt P07949). The data set can be described thus: Inhibition of RET (unknown origin) by DiscoverX KINOMEscan assay.
The target of data set [5] is [Pyruvate dehydrogenase (acetyl-transferring)] kinase isozyme 1, mitochondrial (Homo sapiens, UniProt Q15118). Description: Inhibition of PDK1 (unknown origin) incubated for 30 mins followed by substrate addition measured after 60 mins in presence of ATP by ADP-Glo luminescent assay. Background: ADP-Glo turns the ADP formed in a reaction into a luminescent signal.
[Pyruvate dehydrogenase (acetyl-transferring)] kinase isozyme 1, mitochondrial, sequence (Q15118 whole entry): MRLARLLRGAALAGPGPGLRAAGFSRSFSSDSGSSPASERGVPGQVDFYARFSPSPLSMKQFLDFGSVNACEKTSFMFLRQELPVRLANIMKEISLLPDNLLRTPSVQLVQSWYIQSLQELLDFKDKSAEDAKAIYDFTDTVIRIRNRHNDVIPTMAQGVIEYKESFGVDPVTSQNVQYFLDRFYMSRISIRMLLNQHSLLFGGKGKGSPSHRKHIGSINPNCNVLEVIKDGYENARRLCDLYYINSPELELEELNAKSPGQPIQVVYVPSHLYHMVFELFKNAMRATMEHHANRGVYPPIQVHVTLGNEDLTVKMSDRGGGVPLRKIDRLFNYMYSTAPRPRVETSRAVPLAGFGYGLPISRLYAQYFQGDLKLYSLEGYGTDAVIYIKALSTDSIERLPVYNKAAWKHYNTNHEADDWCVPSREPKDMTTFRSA
The next data set has as its system PSN1. In kind it is functional, cell-based. As to conditions: Homo sapiens, PSN1, 72 h.
For data set [6], the target named is T1, Receptor-interacting serine/threonine-protein kinase 1 (Homo sapiens, UniProt Q13546).
T1 sequence (Q13546 whole entry): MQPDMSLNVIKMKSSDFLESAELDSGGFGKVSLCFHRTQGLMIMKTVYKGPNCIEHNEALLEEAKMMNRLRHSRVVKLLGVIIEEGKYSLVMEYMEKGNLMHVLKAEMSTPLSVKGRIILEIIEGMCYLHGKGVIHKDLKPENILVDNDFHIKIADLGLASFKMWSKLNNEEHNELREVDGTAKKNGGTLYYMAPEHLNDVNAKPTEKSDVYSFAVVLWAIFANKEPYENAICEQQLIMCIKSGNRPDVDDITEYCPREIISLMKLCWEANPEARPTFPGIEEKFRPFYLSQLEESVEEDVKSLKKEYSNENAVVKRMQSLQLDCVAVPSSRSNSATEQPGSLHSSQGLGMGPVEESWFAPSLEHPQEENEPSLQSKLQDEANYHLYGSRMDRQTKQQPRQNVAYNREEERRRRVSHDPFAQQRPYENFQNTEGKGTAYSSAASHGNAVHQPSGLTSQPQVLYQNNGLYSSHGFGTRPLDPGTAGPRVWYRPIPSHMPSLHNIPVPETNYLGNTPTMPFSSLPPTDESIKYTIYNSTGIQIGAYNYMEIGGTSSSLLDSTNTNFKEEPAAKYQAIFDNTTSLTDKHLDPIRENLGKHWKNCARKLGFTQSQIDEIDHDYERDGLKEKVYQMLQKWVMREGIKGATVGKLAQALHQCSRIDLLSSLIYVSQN
The data set can be described thus: Inhibition of RIPK1 (unknown origin).

In data set [7] the target is T1, Receptor-interacting serine/threonine-protein kinase 1. The data set can be described thus: Inhibition of human RIPK1 by ADP-Glo assay.
Data set [8] has as its target Receptor-interacting serine/threonine-protein kinase 3 (Homo sapiens, UniProt Q9Y572). Description: Inhibition of RIPK3 (unknown origin).
Data set [9] has as its target Phosphatidylinositol 4,5-bisphosphate 3-kinase catalytic subunit alpha isoform (Homo sapiens, UniProt P42336). The data set can be described thus: Inhibition of PI3Kalpha (unknown origin).
In data set [10] the target is Phosphatidylinositol 4,5-bisphosphate 3-kinase catalytic subunit beta isoform (Homo sapiens, UniProt P42338). The data set can be described thus: Inhibition of PI3Kbeta (unknown origin).
Phosphatidylinositol 4,5-bisphosphate 3-kinase catalytic subunit beta isoform, sequence (P42338 whole entry, canonical isoform): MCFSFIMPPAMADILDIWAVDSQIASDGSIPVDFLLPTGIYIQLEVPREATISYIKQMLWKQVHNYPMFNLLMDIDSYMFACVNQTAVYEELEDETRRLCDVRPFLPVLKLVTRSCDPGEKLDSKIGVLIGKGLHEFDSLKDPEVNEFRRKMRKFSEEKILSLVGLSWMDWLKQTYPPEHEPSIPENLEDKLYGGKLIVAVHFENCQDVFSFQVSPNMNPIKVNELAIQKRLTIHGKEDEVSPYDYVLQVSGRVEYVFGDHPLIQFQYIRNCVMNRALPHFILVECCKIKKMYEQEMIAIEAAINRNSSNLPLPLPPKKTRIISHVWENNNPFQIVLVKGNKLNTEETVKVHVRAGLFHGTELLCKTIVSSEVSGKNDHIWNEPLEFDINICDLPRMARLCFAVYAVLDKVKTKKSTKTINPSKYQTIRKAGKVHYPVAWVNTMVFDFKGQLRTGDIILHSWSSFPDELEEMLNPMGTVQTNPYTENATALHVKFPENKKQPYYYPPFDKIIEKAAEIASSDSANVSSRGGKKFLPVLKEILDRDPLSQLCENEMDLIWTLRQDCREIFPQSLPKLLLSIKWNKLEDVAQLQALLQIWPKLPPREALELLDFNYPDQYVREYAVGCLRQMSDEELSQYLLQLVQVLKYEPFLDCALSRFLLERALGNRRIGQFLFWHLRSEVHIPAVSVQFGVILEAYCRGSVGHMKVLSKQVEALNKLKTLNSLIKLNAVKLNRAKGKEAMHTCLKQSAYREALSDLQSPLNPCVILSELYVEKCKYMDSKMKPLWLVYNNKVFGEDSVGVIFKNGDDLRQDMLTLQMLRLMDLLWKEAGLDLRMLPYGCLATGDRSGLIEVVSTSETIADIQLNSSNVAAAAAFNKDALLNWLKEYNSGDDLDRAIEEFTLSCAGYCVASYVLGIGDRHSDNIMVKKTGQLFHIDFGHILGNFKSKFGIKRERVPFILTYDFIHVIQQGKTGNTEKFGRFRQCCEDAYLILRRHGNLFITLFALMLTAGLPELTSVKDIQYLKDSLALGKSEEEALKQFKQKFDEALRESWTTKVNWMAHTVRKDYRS
Data set [11] deals with T2, Phosphatidylinositol 4,5-bisphosphate 3-kinase catalytic subunit delta isoform (Homo sapiens, UniProt O00329).
T2 sequence (O00329 whole entry): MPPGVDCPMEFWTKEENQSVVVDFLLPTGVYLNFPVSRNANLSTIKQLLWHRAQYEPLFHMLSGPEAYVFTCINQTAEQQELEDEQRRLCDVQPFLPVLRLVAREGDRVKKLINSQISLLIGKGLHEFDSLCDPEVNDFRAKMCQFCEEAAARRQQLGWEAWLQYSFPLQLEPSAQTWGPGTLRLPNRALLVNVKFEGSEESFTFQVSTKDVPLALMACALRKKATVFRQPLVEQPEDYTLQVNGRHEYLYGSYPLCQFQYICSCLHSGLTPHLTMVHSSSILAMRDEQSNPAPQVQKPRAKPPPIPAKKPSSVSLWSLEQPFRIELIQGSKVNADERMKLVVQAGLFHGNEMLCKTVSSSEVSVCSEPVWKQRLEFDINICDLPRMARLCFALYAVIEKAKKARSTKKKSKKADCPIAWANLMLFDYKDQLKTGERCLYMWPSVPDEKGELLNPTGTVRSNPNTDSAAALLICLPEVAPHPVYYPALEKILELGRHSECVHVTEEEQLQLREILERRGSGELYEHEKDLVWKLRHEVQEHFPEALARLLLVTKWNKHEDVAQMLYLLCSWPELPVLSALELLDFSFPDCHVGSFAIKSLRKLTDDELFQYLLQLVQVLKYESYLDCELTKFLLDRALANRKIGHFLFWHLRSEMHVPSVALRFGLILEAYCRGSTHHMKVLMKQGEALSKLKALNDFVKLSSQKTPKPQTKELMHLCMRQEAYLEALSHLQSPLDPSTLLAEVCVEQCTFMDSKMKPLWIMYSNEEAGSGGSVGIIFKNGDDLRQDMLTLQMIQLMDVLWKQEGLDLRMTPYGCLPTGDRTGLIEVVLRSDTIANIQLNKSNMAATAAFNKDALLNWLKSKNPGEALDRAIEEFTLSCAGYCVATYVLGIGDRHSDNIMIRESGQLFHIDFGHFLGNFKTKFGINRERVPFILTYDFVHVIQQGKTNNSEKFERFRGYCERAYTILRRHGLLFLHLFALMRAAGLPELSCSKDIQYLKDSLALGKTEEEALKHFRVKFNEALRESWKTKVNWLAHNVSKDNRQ
The data set can be described thus: Inhibition of PI3Kdelta (unknown origin).

Data set [12] has as its target Phosphatidylinositol 4,5-bisphosphate 3-kinase catalytic subunit gamma isoform (Homo sapiens, UniProt P48736). The data set can be described thus: Inhibition of PI3Kgamma (unknown origin).
The next data set relates to MCF7. Description: Antiproliferative activity against human MCF7 cells assessed as reduction in cell viability measured after 48 hrs by MTT assay. Type of data set: functional, cell-based. Particulars: MCF7, 48 h. For orientation: Tetrazolium assays rely on reduction of a dye to a coloured formazan, in cell work by metabolically active cells.
For the next data set, the system named is MDA-MB-231. In kind it is functional, cell-based. As to conditions: Homo sapiens, MDA-MB-231, 48 h.

Phosphatidylinositol 4,5-bisphosphate 3-kinase catalytic subunit gamma isoform, sequence (P48736 whole entry, canonical isoform): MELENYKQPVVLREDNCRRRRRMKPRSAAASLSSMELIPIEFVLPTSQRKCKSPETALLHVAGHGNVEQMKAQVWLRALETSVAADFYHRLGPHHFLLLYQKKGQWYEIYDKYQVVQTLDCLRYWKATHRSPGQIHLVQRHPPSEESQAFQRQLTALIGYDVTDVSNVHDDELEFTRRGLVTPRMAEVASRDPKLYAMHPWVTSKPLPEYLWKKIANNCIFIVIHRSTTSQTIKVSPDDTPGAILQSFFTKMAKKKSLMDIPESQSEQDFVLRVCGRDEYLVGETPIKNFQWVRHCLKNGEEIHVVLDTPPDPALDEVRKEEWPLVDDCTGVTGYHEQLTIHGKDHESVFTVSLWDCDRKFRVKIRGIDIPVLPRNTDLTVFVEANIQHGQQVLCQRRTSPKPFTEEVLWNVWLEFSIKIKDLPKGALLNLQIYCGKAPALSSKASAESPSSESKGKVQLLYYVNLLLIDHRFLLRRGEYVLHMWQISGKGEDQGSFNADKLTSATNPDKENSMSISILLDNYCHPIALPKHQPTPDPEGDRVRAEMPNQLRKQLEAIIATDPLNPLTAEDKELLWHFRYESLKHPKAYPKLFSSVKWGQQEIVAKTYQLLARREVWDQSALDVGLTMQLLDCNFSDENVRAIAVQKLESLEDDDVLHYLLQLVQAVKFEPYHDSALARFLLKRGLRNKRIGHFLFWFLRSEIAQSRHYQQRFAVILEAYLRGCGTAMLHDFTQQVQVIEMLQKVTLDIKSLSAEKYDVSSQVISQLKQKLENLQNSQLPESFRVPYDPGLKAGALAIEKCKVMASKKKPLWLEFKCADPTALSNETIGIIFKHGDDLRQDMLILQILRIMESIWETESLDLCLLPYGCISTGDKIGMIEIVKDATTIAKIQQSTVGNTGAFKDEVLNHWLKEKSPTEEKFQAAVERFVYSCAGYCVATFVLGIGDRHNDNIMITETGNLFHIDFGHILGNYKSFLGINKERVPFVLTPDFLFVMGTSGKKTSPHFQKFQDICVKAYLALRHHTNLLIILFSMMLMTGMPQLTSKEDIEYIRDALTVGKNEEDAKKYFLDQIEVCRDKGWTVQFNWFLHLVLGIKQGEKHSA
Phosphatidylinositol 4,5-bisphosphate 3-kinase catalytic subunit alpha isoform, sequence (P42336 whole entry, canonical isoform): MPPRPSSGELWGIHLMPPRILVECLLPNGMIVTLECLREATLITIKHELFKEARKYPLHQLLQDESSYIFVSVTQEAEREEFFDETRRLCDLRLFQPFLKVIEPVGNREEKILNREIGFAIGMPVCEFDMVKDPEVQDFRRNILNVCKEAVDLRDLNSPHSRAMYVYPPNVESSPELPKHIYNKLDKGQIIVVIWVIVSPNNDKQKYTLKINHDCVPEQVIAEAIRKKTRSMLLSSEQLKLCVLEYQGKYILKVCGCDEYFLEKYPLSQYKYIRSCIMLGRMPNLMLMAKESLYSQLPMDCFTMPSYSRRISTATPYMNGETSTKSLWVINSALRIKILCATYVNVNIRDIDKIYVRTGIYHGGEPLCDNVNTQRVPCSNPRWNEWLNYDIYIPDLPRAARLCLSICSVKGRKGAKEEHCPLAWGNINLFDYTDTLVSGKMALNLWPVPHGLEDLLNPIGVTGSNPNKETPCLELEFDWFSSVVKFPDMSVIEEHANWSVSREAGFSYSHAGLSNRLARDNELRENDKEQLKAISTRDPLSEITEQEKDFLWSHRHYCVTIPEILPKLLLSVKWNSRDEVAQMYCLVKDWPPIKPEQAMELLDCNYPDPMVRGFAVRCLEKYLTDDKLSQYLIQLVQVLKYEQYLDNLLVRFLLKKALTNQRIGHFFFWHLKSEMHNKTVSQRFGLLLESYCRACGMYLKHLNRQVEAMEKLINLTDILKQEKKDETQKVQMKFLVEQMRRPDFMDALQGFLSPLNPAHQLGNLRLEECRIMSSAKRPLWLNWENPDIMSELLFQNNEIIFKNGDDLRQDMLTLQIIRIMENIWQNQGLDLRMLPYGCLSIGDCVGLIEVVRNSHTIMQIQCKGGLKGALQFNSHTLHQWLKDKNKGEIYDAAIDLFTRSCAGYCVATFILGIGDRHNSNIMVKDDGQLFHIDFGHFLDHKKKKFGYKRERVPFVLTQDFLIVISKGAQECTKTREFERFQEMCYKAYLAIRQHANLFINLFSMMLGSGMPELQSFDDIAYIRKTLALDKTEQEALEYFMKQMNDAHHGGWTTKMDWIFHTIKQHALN

The term IC50 denotes the point on the concentration scale where inhibition reaches its midpoint. As for `NC(=O)c1cc(Cl)c2c(Cl)c(C3CC3)n(C3CCCNC3)c2n1` (centres undefined), the IC50 in [1] was 1000 nM; with KG-1, less than 100 nM.

Regarding `NC(=O)c1cc(Cl)c2c(Cl)c(I)n(C3CCCNC3)c2n1` (centres undefined), the IC50 in data set [1] is 1000 nM; in the data set with KG-1, less than 100 nM.

In turn, `NC(=O)c1cc(Cl)c2c(Cl)c(C#CC3CC3)n(C3CCCNC3)c2n1` (centres undefined) came in with an IC50 in the data set with KG-1 of less than 100 nM.

By efflux ratio is commonly meant a quotient of directional permeabilities that is used to spot active efflux. As for `Cc1cc(-n2cc(C(=O)N3CCOCC3)c3ccc(N[C@@H](C)c4ccc(F)cn4)nc32)[nH]n1`, inhibition in data set [2] was half-maximal at 2.5 nM (IC50). Moreover, the efflux ratio at 1.5 h, 5 µM in data set [3] worked out at 18.

Broadly, the EC50 is the midpoint of the concentration-response curve. Regarding `COc1ccc(-c2cnc3[nH]cc(C#Cc4cccnc4)c3c2)cc1OC`, the EC50 in the data set on Dengue virus amounted to 720 nM.

Regarding `CN1CCN(Cc2ccc(NC(=O)c3cccc(/N=N/c4cnc5[nH]ccc5c4)c3)cc2C(F)(F)F)CC1`, in [4], half-maximal inhibition (IC50) was put at 50 nM.

Regarding `Cn1cc(-c2nc(N)nnc2-c2c[nH]c3ccc(F)cc23)c2cc(Br)cnc21`, the half-inhibitory concentration (IC50) in data set [5] is 30 nM; in the data set on PSN1 it was 3300 nM.

In data set [6], `Oc1ccc(-c2cnc3[nH]ccc3c2)cc1` had an IC50 of 1470 nM.

In the case of `Cn1cc(-c2nnc(N)nc2-c2c[nH]c3ccc(Br)cc23)c2cc(Br)cnc21`, the IC50 in data set [5] is 30 nM; in the data set on PSN1 it was 3300 nM.

In turn, `NC(=O)c1ccc(-c2cc3cccnc3[nH]2)cc1` displayed a concentration for half-maximal inhibition (IC50) in data set [6] of 90 nM.

Take `O=C(c1ccc(-c2cc3cccnc3[nH]2)cc1)N1CCOCC1`: the IC50 in data set [7] was 80 nM; in data set [8], more than 20000 nM.

For `Cn1cc(-c2nc(N)nnc2-c2c[nH]c3ccc(Br)cc23)c2cc(Br)cnc21`, the IC50 in [5] was 30 nM; with PSN1, 3300 nM.

For `Cn1cc(-c2nnc(N)nc2-c2c[nH]c3ccc(F)cc23)c2cc(Br)cnc21`, the 50% inhibitory concentration (IC50) in data set [5] was 30 nM; in the data set with PSN1, 3300 nM.

Take `O=S(=O)(Nc1cc(-c2cnc3[nH]cc(-c4ccc(N5CCOCC5)nc4)c3c2)cnc1Cl)c1ccccc1`: the IC50 is 0.3 nM in data set [9]; 0.3 nM in [10]; 0.3 nM in data set [11]; 0.3 nM in [12]; 1190 nM in the data set with MCF7; 450 nM with MDA-MB-231.

Take `Cc1cc(-n2cc(C(=O)N3CCO[C@@H](C)C3)c3ccc(OC(C)c4ccc(F)cn4)nc32)n[nH]1` (some centres undefined): the efflux ratio at 1.5 h, 5 µM in [3] was found to be 1.

Consider `O=S(=O)(Nc1cc(-c2cnc3[nH]cc(-c4cnn(CCN5CCOCC5)c4)c3c2)cnc1Cl)c1ccccc1`, for which the IC50 in [9] worked out at 0.3 nM; in data set [10], 0.3 nM; in [11], 0.3 nM; in data set [12], 0.3 nM; in the data set on MCF7, 6000 nM; with MDA-MB-231, 1200 nM.
